Values quoted from earlier work in paper PMC10353187, “Discovery of a new potent oxindole multi-kinase inhibitor among a series of designed 3-alkenyl-oxindoles with ancillary carbonic anhydrase inhibitory activity as antiproliferative agents” (BMC Chemistry, 2023).

Tests used:
hCA XII = hCA XII (Homo sapiens, UniProt O43570); parameters: made in house; details: reported CAIs, Fig. 1; cited from earlier work
hCA IX = hCA IX (Homo sapiens, UniProt Q16790); parameters: made in house; details: reported CAIs, Fig. 1; cited from earlier work

Sequence of hCA XII (O43570 25-354): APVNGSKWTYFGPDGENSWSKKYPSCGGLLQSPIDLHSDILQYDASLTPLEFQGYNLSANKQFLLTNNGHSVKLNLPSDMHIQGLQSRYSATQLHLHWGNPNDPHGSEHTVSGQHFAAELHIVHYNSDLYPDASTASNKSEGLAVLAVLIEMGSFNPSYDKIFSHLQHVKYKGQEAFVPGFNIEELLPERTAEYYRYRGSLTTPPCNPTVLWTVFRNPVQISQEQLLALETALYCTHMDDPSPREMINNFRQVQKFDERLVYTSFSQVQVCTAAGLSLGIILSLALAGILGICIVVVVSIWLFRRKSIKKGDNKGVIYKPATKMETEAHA

Structure (SMILES): O=S(=O)(Nc1nc2ccc(Cl)cc2s1)c1ccc(F)cc1 [VI]
- Ki (hCA XII): 85 nM
- Ki (hCA IX): 950 nM

Structure (SMILES): O=C(O)c1cc(Sc2ccccn2)cc([N+](=O)[O-])c1 [V]
- Ki (hCA XII): 82.1 nM
- Ki (hCA IX): 18 nM
